Read-outs that look alike come from different tables or passages of the source.
Tests used:
[1] = 14-membered ring
[2] = from C[C@@H]1CN(c2ncc(Cl)c(Nc3cc(OCC(=O)O)c4c(c3)[nH]c(=O)n4C)n2)C[C@H](N)C1(F)F; amide bond; 14-membered ring; HATU/DIEA; DMF; 141.0 mM; 20.0 °C; 2.0 h
[3] = snar bond, 14-membered ring, DIEA, 80.0 °C, 12.0 h
BCL6 = biological target: T1, BCL6 (Homo sapiens, UniProt P41182); assay: HiBiT cellular degradation assay (Promega) in Su-DHL-4 cells; format: cell-based; details: concentration to reach 50% degradation; endogenous BCL6 tagged with SmBiT in Su-DHL-4 cells; 24 hr of compound treatment; relative to DMSO control
T1 construct: Endogenous BCL6 was tagged with the 11-amino acid SmBiT through CRISPR/Cas9 gene editing; endogenous in cells; host or cells: Su-DHL-4 cells, CRISPR/Cas9 knock-in single cell clone
Description: DC50 (concentration to reach 50% degradation) values were determined from a cellular degradation assay (HiBiT, Promega™) in Su-DHL-4 cells (Table 1). Endogenous BCL6 was tagged with the 11-amino acid SmBiT through CRISPR/Cas9 gene editing and single cell clone selection. After 24 hr of compound treatment, cells were lysed and incubated with LgBiT protein to reconstitute intact nanoluciferase. Substrate was then added and relative luciferase units were measured. Degradation levels for each treatment were taken as a percentage compared to the control, 100% DMSO (Prism).

Row | Compound | DC50 (BCL6) | other results
1 | CC1CN2CC(NC(=O)COc3cc(cc4[nH]c(=O)n(C)c34)Nc3nc2ncc3F)C1(F)F (centres unmarked) | – | ring closure, isolated yield ([1]; from CC1CN(c2ncc(F)c(Nc3cc(OCC(=O)O)c4c(c3)[nH]c(=O)n4C)n2)CC(N)C1(F)F, amide bond, HATU/DIEA, DMF, 148.0 mM, 15.0 °C, 2.0 h): 74%
2 | C[C@@H]1CN2C[C@H](NC(=O)COc3cc(cc4[nH]c(=O)n(C)c34)Nc3nc2ncc3Cl)C1(F)F | – | ring closure, crude yield [2]: 59%
3 | C[C@@H]1C[C@H]2CN(C1)c1ncc(Cl)c(n1)Nc1cc(c3c(c1)[nH]c(=O)n3C)OCCN2 | – | ring closure, isolated yield ([1]; from C[C@@H]1C[C@H](N)CN(c2ncc(Cl)c(Nc3cc(OCCCl)c4c(c3)[nH]c(=O)n4C)n2)C1, amine bond, K2CO3/NaI, DMF, 11.5 mM, 100.0 °C, 36.0 h): 42%
4 | C[C@@H]1C[C@H]2CN(C1)c1ncc(Cl)c(n1)Nc1cc(c3c(c1)[nH]c(=O)n3C)OCCO2 | – | ring closure, isolated yield ([1]; from C[C@H]1CNC[C@@H](OCCOc2cc(Nc3nc(Cl)ncc3Cl)cc3[nH]c(=O)n(C)c23)C1, snar bond, DIEA, DMSO, 38.3 mM, 80.0 °C, 12.0 h): 12%
5 | C[C@H]1CN2C[C@@H](OCCOc3cc(cc4[nH]c(=O)n(C)c34)Nc3nc2ncc3Cl)C1(F)F | – | ring closure, isolated yield ([1]; from C[C@H]1CNC[C@@H](OCCOc2cc(Nc3nc(Cl)ncc3Cl)cc3[nH]c(=O)n(C)c23)C1(F)F, snar bond, DIEA, DMSO, 49.7 mM, 80.0 °C, 24.0 h): 30%
6 | C[C@H]1C[C@@H]2CN(C1)c1ncc(Cl)c(n1)Nc1cc(c3c(c1)[nH]c(=O)n3C)OCCO2 | – | ring closure, isolated yield ([1]; from C[C@@H]1CNC[C@H](OCCOc2cc(Nc3nc(Cl)ncc3Cl)cc3[nH]c(=O)n(C)c23)C1, snar bond, DIEA, DMSO, 18.4 mM, 80.0 °C, 12.0 h): 13%
7 | CNC(=O)COc1cc2cc3cc(c2n(C)c1=O)OCCC[C@H]1CN(C[C@@H](C)C1(F)F)c1ncc(Cl)c(n1)N3 [Compound 4, 2-(((1^3S, 1^5R)-2^5-chloro-1^4,1^4-difluoro-13,41-dimethyl-4^2-oxo-4^1,4^2-dihydro-5-oxa-3-aza-4(6,8)-quinolina-2(2,4)-pyrimidina-1 (1,3)-piperidinacyclooctaphane-4^3-yl)oxy)-N-methylacetamide] | 0.68 nM | ring closure, yield after HPLC ([3]; from CNC(=O)COc1cc2cc(Nc3nc(Cl)ncc3Cl)cc(OCCC[C@H]3CNC[C@@H](C)C3(F)F)c2n(C)c1=O, DMF, 140.0 mM): 12%
8 | CNC(=O)COc1cc2cc3cc(c2n(C)c1=O)OCCO[C@@H]1C[C@H](C)CN(C1)c1ncc(Cl)c(n1)N3 [Compound 6, 2-(((1^3R, 1^5S)-2^5-chloro-1^5,4^1-dimethyl-4^2-oxo-4^1, 4^2-dihydro-5,8-dioxa-3-aza-4(6.8)-quinolina-2(2,4)-pyrimidina-1 (1,3)-piperidinacyclooctaphane-4^3-yl)oxy)-N-methylacetamide] | 0.61 nM | ring closure, yield after HPLC ([3]; from CNC(=O)COc1cc2cc(Nc3nc(Cl)ncc3Cl)cc(OCCO[C@H]3CNC[C@@H](C)C3)c2n(C)c1=O, DMSO, 36.0 mM): 12%
9 | C[C@@H]1CN2C[C@H](CCCOc3cc(cc4[nH]c(=O)n(C)c34)Nc3nc2ncc3Cl)C1(F)F [Compound 26, (1^3S,1^3R)-2^5-chloro-1^4,1^4-difluoro-1^5,4^3-dimethyl-4^2,4^3-dihydro-4 H-5-oxa-3-aza-4(6,4)-benzo[d]imidazola-2(2,4)-pyrimidina-1 (1,3)-piperidinacyclooctaphan-4^2-one] | 72 nM | ring closure, isolated yield ([1]; from C[C@@H]1CNC[C@H](CCCOc2cc(Nc3nc(Cl)ncc3Cl)cc3[nH]c(=O)n(C)c23)C1(F)F, snar bond, DIEA, DMSO, 27.1 mM, 80.0 °C, 12.0 h): 64%

Continued, in another order:

Row | DC50 (BCL6) | Compound | other results
10 | > 400 nM | C[C@H]1CN2C[C@@H](CCCOc3cc(cc4[nH]c(=O)n(C)c34)Nc3nc2ncc3Cl)C1(F)F [Compound 27, (1^3R, 1^5S)-2^5-chloro-1^4,1^4-difluoro-1^5,4^3-dimethyl-4^2,4^3-dihydro-4^1H-5-oxa-3-aza-4(6,4)-benzo[d]imidazola-2(2,4)-pyrimidina-1 (1,3)-piperidinacyclooctaphan-4^2-one] | ring closure, isolated yield ([1]; from C[C@H]1CNC[C@@H](CCCOc2cc(Nc3nc(Cl)ncc3Cl)cc3[nH]c(=O)n(C)c23)C1(F)F, snar bond, DIEA, DMSO, 40.6 mM, 80.0 °C, 12.0 h): 63%
11 | > 400 nM | C[C@H]1CN2C[C@@H](NCCOc3cc(cc4c3n(C)c(=O)n4CCC(C)(C)O)Nc3nc2ncc3Cl)C1(F)F [Compound 35, (1^3R, 1^5S)-1^4,1^4,2^5-Trifluoro-4^1-(3-hydroxy-3-methylbutyl)-1^5,4^3-dimethyl-4^2,4^3-dihydro-4^1H-5-oxa-3,8-diaza-4(6,4)-benzo[d]imidazola-2(2,4)-pyrimidina-1 (1,3)-piperidinacyclooctaphan-4^2-one] | –
12 | > 400 nM | C[C@H]1CN2C[C@@H](NCCOc3cc(cc4[nH]c(=O)n(C)c34)Nc3nc2ncc3F)C1(F)F [Compound 37] | –
13 | 14.2 nM | C[C@@H]1CN2C[C@H](NCCOc3cc(cc4[nH]c(=O)n(C)c34)Nc3nc2ncc3F)C1(F)F [Compound 38] | –
14 | 96.7 nM | C[C@@H]1CN2C[C@H](NCCOc3cc(cc4c3n(C)c(=O)n4CCC(C)(C)O)Nc3ccnc2n3)C1(F)F [Compound 39] | –
15 | 3.7 nM | C[C@@H]1CN2C[C@H](NCCOc3cc(cc4c3n(C)c(=O)n4CCC(C)(O)CO)Nc3nc2ncc3Cl)C1(F)F (some centres unmarked) [Compound 40] | –
16 | 1 nM | C[C@@H]1CN2C[C@H](NCCOc3cc(cc4c3n(C)c(=O)n4C[C@@H](O)C(C)(C)O)Nc3nc2ncc3Cl)C1(F)F [Compound 41] | –
17 | 8.5 nM | C[C@@H]1CN2C[C@H](NCCOc3cc(cc4c3n(C)c(=O)n4C[C@H](O)C(C)(C)O)Nc3nc2ncc3Cl)C1(F)F [Compound 42] | –
18 | 11.3 nM | C[C@@H]1CN2C[C@H](NCCOc3cc(cc4c3n(C)c(=O)n4CC[S@](C)(=N)=O)Nc3nc2ncc3Cl)C1(F)F [Compound 43] | –
19 | 18.9 nM | C[C@@H]1CN2C[C@H](NCCOc3cc(cc4c3n(C)c(=O)n4CC[S@@](C)(=N)=O)Nc3nc2ncc3Cl)C1(F)F [Compound 44] | –
20 | 8.7 nM | C[C@@H]1CN2C[C@H](NCCOc3cc(cc4c3n(C)c(=O)n4CCC3(O)COC3)Nc3nc2ncc3Cl)C1(F)F [Compound 45] | –
21 | > 400 nM | CNC(=O)COc1cc2cc3ccc2n(c1=O)CCCCO[C@H]1C[C@@H](C)CN(C1)c1ncc(Cl)c(n1)N3 [Compound A, reference compound] | –
22 | > 400 nM | CNC(=O)COc1cc2cc3ccc2n(c1=O)CCCCO[C@@H]1C[C@H](C)CN(C1)c1ncc(Cl)c(n1)N3 [Compound B, reference compound] | –

Source: US20260159527A1, “MACROCYCLIC BCL6 DEGRADERS” (DANA-FARBER CANCER INSTITUTE, INC., priority 2022, published 2026)
